Assays:
[1] = tested on: other Rho family GTPases (Rac1, RhoA); assay: Multiplex dose response with Mg, BODIPY-FL-GTP binding; details: in the presence of Mg ions
Experimental: In experiments including magnesium, six GST-GTPases were assayed simultaneously in a single multiplex (Rac1 wt, Rac1Q61L, RhoA wt, RhoAL63, Cdc42 wt and Cdc42Q61L) and 1 nM BODIPY-FL-GTP binding was measured in the presence or absence of the serial drug dilution series. Each dose response series was run in duplicate.

[2] = target: His-Cdc42 binding to GST-PAK-PBD (Homo sapiens, UniProt P60953); assay: In vitro Cdc42-GTPγS formation PAK-PBD pull-down; type: biochemical; details: 10 μM inhibitor
Sequence of His-Cdc42 binding to GST-PAK-PBD (P60953 whole entry): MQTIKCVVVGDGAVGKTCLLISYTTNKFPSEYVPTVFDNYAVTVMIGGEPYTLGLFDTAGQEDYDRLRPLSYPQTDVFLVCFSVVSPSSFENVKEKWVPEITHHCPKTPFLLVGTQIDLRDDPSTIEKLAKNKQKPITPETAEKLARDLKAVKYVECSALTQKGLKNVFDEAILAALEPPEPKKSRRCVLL
Experimental: For analysis of the effect of MLS000693334 on the formation of the GTP-bound form of Cdc42 in vitro, 40 nM His-Cdc42 wt incubated (20 min at 30 C) with various concentration of GTPγS in the presence of 1 mM EDTA containing NP-HPS buffer. Reaction stopped by adding of excess amount of MgCl2. Mixture incubated with 15 μl PAK-PBD/beads (Cytoskeleton Inc., Denver, Colo.) for 1 h. Washed 2× and active Cdc42 analyzed by Western blot using mAb for Cdc42 (Cytoskeleton Inc., Denver, Colo.) and Mouse TrueBlot Ultra: Horseradish Peroxidase anti-mouse IgG (eBioscience. San Diego, Calif.) followed by ECL (Thermo Scientific, Rockford, Ill.).
For in vitro Cdc42 activation measurements, DMSO or an equal volume of SID57578341 in DMSO were incubated for 20 min at 30° C. with 40 nM His-Cdc42 protein and varying concentrations of GTPγS in 1 mM EDTA-containing buffer (NP-HPS). Further nucleotide exchange was inhibited with the addition of excess MgCl2 (60 mM final) and transfer to ice. Activated Cdc42 protein was isolated from solution by adding 15 μl GST-PAK-PBD bound glutathione beads and rotation at 4° C. for 1 h. Activated Cdc42 bound to GST-PAK-PDB was resolved by SDS-PAGE (12% gels) and analyzed by immunoblot using mAb directed against Cdc42 (Cytoskeleton, Inc.) and ECL (Thermo Scientific, Rockford, Ill.). Quantification was by densitometry.

[3] = tested on: RBL-2H3 cells; assay: RBL cell morphology, actin and Cdc42 distribution after activation; type: cell-based, rat; details: 10 μM
Experimental: Live cell microscopy was carried out on RBL-2H3 cells. Cells were grown on coverslips overnight, washed and overlaid with Tyrode's buffer (10 mM Hepes, pH 7.4, 130 mM NaCl, 5 mM KCl, 1.4 mM CaCl2, 1 mM MgCl2, 5.6 mM glucose and 0.1% BSA). Time lapse images were taken after addition of 10 μM MLS000693334 (final concentration) at 60 s intervals for up to 30 min. Activation with Thy-1 cross-linking was performed as described {Surviladze, 1998 #50}. Briefly, RBL cells incubated with OX7 mAb (Santa Cruz Biothechnology) final concentration 50 ug/ml for 1 h at 37 C. The unbound OX7 mAb was washed out with Tyrode's solution and activation initiated by adding anti-mouse IgG (25 ug/ml) (Jackson Immunoresearch Laboratories). Imaging was performed using a Bio-Rad Radiance 2100 confocal microscope equipped with a 60×1.4 NA oil immersion objective equipped with Lasersharp3000 software.
RBL-2H3 cells were grown in RPMI supplemented with 10% fetal bovine serum on cover slips. Semi-confluent cells were washed with Tyrode's solution and incubated with DMSO (vehicle) or 10 μM MLS000693334 for 1 h at 37° C. Inhibitor treated and un-treated cells were stimulated with 1 μg/ml DNP-BSA for 30 min as previously described {Wilson, 1991 #52}. Activation stopped by transferring of samples on ice. […]

[4] = tested on: Cdc42 in Swiss 3T3 cells; assay: EGF induced Cdc42 membrane localization; type: cell-based; details: 1 μM
Experimental: Subconfluent cells were starved overnight in DMEM without serum and incubated with 1 or 10 μM inhibitor for 1 h. As a positive control, cells were stimulated with 100 ng/ml bradykinin for 30 min, or 100 ng/ml EGF as previously described {Kozma, 1995 #24}. Cells were washed with phosphate buffered saline, fixed with 3% paraformaldehyde, permeabilized for 5 min with 0.1% Triton X-100 in Tyrode's buffer, blocked for 1 h with 1% BSA in Tyrode's buffer, and stained for 1 h with rhodamine-phalloidin or Cdc42 mAb (Cytoskeleton Inc., Denver, Colo.) for 1 h followed by Cy3-conjugated goat-anti-mouse antibody (Jackson Immunoresearch Laboratories) for 1 h, at RT.

[5] = tested on: Dbs (guanine nucleotide exchange factor) on Cdc42 wt; assay: Effect on Dbs activity, [3H]GDP/GTP exchange; type: biochemical; details: 10 μM
Experimental: GSH-beads were coupled with Cdc42 wt, washed and incubated with 10 mM EDTA-NP-HPS for 20 min at 30° C. Nucleotide depleted enzyme washed with NP-HPS, and incubated with 2μCi [^3H]GDP in the presence of 1 mM EDTA (in NP-HPS buffer) for 20 min at 30° C. To prevent the dissociation of tritiated guanine nucleotide from the Cdc42, MgCl2 was added to a final concentration 20 mM. [^3H]GDP-Cdc42-beads washed and re-suspended in GDP exchange buffer (NP-HPS with 1 mM EDTA, 5 mM MgCl2, and 1 mM DTT) and 100 μl aliquots loaded in tubes and incubated with vehicle or 10 μM MLS000693334 for 15 min. Effect of the guanine nucleotide exchange factor domain, Dbs on GDP/GTP exchange in the presence and absence of inhibitor was measured after addition of 200 nM His-DBS (DH/PH domain). The GDP/GTP exchange reaction was initiated by addition of 250 nM GTP and incubation samples for 2 min 30 C. The reaction was stopped by transferring samples on ice. Cdc42-beads collected and washed twice with ice cold GDP exchange buffer and measured radioactivity, by loading samples in scintillation vial.

## COc1ccc(C2CC(c3ccccc3)=NN2c2ccc(S(N)(=O)=O)cc2)cc1 (stereo not drawn) [MLS000693334, 4-[3-(4-methoxyphenyl)-5-phenyl-3,4-dihydropyrazol-2-yl]benzenesulfonamide]
[1]
  Effect on activity of other Rho family GTPases: did not affect activity
[2]
  Complex formation of active Cdc42(GTPγS) with PAK-PBD: dramatically reduced
[3]
  Filopodia formation and cell spreading after cross-linking of Thy-1: dramatically inhibits
  Morphology of resting RBL-2H3 cells: no change in morphology
[4]
  EGF induced localization of Cdc42 on the membrane: reduced membrane localization
[5]
  Dbs activity (GDP/GTP exchange): did not changes Dbs activity

Reference: patent US9642835B2, “Modulators of GTPase and use in relevant treatment” (STC.UNM, priority 2010, dated 2017)
